Laboratory results as given in PMC5054432 (Scientific Reports, 2016).
Where “and” joins values, the source holds several entries; their conditions need not be identical. Equal entries are not always repeated.

Columns and labels:
[1] = biological target: T1, GluN1/GluN2B-F114AzF receptors (Rattus norvegicus (GluN1-1a); Mus musculus (GluN2B), UniProt P35439+Q01097); assay: MK-801 inhibition kinetics (index of channel open probability), TEVC in oocytes; type: cell-based, rat GluN1-1a, mouse GluN2B; design: expressed in transfected cells; host or cells: Xenopus laevis oocytes co-injected with GluN1, GluN2B amber mutant, Yam suppressor tRNA and AzF-RS, incubated with 1 mM AzF; details: 50 nM MK-801, normalized to mean τon of wt
Protocol: (§1) To analyze the gating property change, we assessed channel maximal open probability (Po) using MK-801, a specific open-pore blocker of NMDARs[25]. Because the rate at which MK-801 inhibits the macroscopic NMDAR responses is proportional to the level of channel activity (i.e. Po), this MK-801 assay is classically used to index NMDAR channel activity.
(§2) For all experiments, the standard external solutions contained: 100 mM NaCl, […] BaCl2, and 5 mM HEPES, pH adjusted to 7.3 with KOH. […] Currents were recorded and measured at a holding potential of −60 mV at room temperature.
(§3) The measurements at 30 μM were corrected by multiply with a correcting value to remove the pore blocking effect at −60 mV[49]. Zinc was prepared at 100 mM ZnCl2 stock (in 1% HCl). In all zero-Zn^2+ control solutions, diethylenetriamine-pentaacetic acid (DTPA, 10 μM) was added to chelate trace Zn^2+ and other heavy metals. Spermine potentiation was analyzed as described earlier. Solutions of 200 μM spermine (Sigma-Aldrich) were made by directly diluting the powder into the standard agonist solution. Spermine sensitivity was assessed at pH 6.5 in order to maximize the spermine-induced potentiation. Experiments with MK-801 were performed as described previously. […] Each τon was then normalized to the mean τon of wt receptors measured the same day. […]

[2] = biological target: T2, wt GluN1/GluN2B receptors (UniProt P35439+Q01097); assay: as above; type: cell-based, rat GluN1-1a, mouse GluN2B; details: 50 nM MK-801, normalized to mean τon of wt
Protocol: as §1, §2, §3

[3] = biological target: T1, GluN1/GluN2B-F114AzF receptors; assay: Ifenprodil and Zn2+ inhibition dose-response, TEVC in Xenopus laevis oocytes; type: cell-based; details: for IC50 / Zn2+ Hill coefficient nH: F114AzF mutant
Protocol: (§4) Oocytes were prepared and injected as described previously. Recombinant NMDARs were expressed in Xenopus laevis oocytes after nuclear injection of 36 nl of a mixture cDNAs encoding various GluN1 and GluN2 subunits (ratio 1:1, 10 ng/μl for GluN2A and 30 ng/μl for GluN2B). For Uaa incorporation, oocytes were co-injected with a 36 nl mixture of cDNAs containing GluN1, GluN2, Yam, and aaRS as follows, unless otherwise indicated in the text: GluN1-wt (60 ng/μl), GluN2A-F115AzF (60 ng/μl), Yam (5 ng/μl), AzF-RS (2.5 ng/μl); or, GluN1-wt (80 ng/μl), GluN2B-F114AzF (80 ng/μl), Yam (10 ng/μl), AzF-RS (5 ng/μl). After injection, oocytes were incubated at 19 °C in a Barth solution (88 mM NaCl, 1 mM KCl, 0.33 mM Ca(NO3)2, 0.41 mM CaCl2, 0.82 mM MgSO4, 2.4 mM NaHCO3, 10 mM HEPES, pH adjusted to 7.6 with NaOH) supplemented with gentamicin sulfate ([…]) and D-APV (50 μM). AzF was dissolved with sonication in Barth solution (stock solution at 10 mM), and diluted (1 mM) for oocytes incubation.
as §2
(§5) The measurements at 30 μM were corrected by multiply with a correcting value to remove the pore blocking effect at −60 mV[49]. Zinc was prepared at 100 mM ZnCl2 stock (in 1% HCl). In all zero-Zn^2+ control solutions, diethylenetriamine-pentaacetic acid (DTPA, 10 μM) was added to chelate trace Zn^2+ and other heavy metals. Spermine potentiation was analyzed as described earlier. Solutions of 200 μM spermine (Sigma-Aldrich) were made by directly diluting the powder into the standard agonist solution. Spermine sensitivity was assessed at pH 6.5 in order to maximize the spermine-induced potentiation. Experiments with MK-801 were performed as described previously. MK-801 solutions (10–50 nM) were prepared by dilution of stock solution (50 μM) into agonist containing solution[4]. MK-801 time constants of inhibition (τon) were obtained by fitting currents with a single-exponential component to a time window corresponding to 10–90% of maximum inhibition. Each τon was then normalized to the mean τon of wt receptors measured the same day.
(§6) For all functional recordings in Xenopus oocytes, online UV light treatment with PE-2 light source (CoolLED) using a 365 nm filter channeled through optical fiber was directly applied to the dark hemisphere of the oocytes in the recording chamber. […] For measurements in presence of agonists and allosteric modulators, the UV application duration was ~3 min. In the absence of agonist, the UV application duration was ~5 min.

[4] = biological target: T2, wt GluN1/GluN2B receptors; assay: as above; type: cell-based, rat GluN1-1a, mouse GluN2B
Protocol: as §4, §2, §5, §6

[5] = biological target: T1, GluN1/GluN2B-F114AzF receptors; assay: UV-induced current potentiation in the presence of allosteric modulators, TEVC in oocytes; type: cell-based, rat GluN1-1a, mouse GluN2B; design: expressed in transfected cells; host or cells: Xenopus laevis oocytes co-injected with GluN1, GluN2B amber mutant, Yam suppressor tRNA and AzF-RS, incubated with 1 mM AzF
Description: To evaluate whether AzF photo-activation in GluN2B produces functional changes, we applied a time-resolved assay[10] by combining online application of UV light and simultaneously recording of agonist-induced currents using TEVC. Current after UV illumination (Iuv) were compared to currents before UV illumination (Io) and yielded the relative current changes (Iuv/Io).
To understand how the NTD dimer interfacial contact influences allosteric modulation, we have quantified UV-induced potentiation in the presence of different modulators, including a GluN2B specific positive allosteric modulator spermine.
as §2, §5, §6

[6] = biological target: T1, GluN1/GluN2B-F114AzF receptors; details: 200 μM spermine, pH 6.5, without UV
Protocol: For all experiments, the standard external solutions contained: 100 mM NaCl, 300 mM BaCl2, and 5 mM HEPES, pH adjusted to 7.3 with KOH. […] Currents were recorded and measured at a holding potential of −60 mV at room temperature.
The measurements at 30 μM were corrected by multiply with a correcting value to remove the pore blocking effect at −60 mV[49]. Zinc was prepared at 100 mM ZnCl2 stock (in 1% HCl). In all zero-Zn^2+ control solutions, diethylenetriamine-pentaacetic acid (DTPA, 10 μM) was added to chelate trace Zn^2+ and other heavy metals[25]. […] Experiments with MK-801 were performed as described previously. MK-801 solutions (10–50 nM) were prepared by dilution of stock solution (50 μM) into agonist containing solution[4]. MK-801 time constants of inhibition (τon) were obtained by fitting currents with a single-exponential component to a time window corresponding to 10–90% of maximum inhibition. Each τon was then normalized to the mean τon of wt receptors measured the same day.

wild-type GluN1 (rat) = wild-type GluN1 (rat) (UniProt P35439)

T1 sequence (Q01097 27-1482, other chains not shown): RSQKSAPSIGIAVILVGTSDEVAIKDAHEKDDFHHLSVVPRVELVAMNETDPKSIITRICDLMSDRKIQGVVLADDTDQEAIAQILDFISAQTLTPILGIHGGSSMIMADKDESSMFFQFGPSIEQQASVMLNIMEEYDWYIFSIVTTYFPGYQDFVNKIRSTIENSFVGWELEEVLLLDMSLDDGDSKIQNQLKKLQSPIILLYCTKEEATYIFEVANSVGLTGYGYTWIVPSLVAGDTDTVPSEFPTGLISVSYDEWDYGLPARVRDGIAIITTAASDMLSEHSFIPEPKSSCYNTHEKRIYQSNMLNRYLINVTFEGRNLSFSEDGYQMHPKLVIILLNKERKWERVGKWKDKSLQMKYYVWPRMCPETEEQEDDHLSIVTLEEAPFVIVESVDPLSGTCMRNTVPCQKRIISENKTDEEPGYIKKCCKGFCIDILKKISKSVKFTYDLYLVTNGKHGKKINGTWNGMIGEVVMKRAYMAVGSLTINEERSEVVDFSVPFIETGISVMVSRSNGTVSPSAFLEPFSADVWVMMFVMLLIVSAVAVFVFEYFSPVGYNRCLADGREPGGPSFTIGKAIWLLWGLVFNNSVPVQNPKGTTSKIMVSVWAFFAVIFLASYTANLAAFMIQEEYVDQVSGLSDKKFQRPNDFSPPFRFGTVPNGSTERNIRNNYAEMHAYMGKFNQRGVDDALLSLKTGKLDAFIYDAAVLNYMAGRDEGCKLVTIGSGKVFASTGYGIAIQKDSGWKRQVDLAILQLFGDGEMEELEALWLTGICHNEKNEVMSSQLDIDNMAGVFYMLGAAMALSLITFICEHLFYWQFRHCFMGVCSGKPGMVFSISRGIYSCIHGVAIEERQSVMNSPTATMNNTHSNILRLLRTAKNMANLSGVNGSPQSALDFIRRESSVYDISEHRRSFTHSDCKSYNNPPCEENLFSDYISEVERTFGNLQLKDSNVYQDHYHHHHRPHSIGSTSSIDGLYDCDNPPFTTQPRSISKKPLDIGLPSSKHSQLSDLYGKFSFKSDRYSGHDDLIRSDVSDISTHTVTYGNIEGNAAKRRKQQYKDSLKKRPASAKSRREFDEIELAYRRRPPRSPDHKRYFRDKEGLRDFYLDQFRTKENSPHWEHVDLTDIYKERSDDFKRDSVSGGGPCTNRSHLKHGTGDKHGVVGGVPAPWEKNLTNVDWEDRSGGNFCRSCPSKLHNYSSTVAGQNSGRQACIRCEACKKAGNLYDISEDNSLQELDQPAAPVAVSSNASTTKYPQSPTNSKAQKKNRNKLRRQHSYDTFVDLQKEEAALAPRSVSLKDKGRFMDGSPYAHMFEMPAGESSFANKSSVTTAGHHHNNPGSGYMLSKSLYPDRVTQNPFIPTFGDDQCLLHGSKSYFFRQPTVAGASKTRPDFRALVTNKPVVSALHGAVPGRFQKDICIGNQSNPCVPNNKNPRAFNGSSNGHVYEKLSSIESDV
T2 sequence (Q01097 27-1482, other chains not shown): as above

## C[C@]12N[C@H](Cc3ccccc31)c1ccccc12 [MK-801, (+)-MK-801]
[1]; F114AzF mutant with UV
  Relative MK-801 τon: 0.80 ± 0.07
[1]; F114AzF mutant without UV
  Relative MK-801 τon: 1.81 ± 0.47
[2]; wild-type with UV
  Relative MK-801 τon: 0.90 ± 0.06
[2]; wild-type without UV
  Relative MK-801 τon: 1.00

## [Cl-].[Cl-].[Zn+2] [Zn^2+, ZnCl2]
[3]; 0.1uM inhibitor, +UV
  Maximal inhibition (%): 16 ± 7%
[3]; 0.1uM inhibitor, -UV
  Maximal inhibition (%): 25 ± 8%
[3]; 1uM inhibitor, +UV
  Maximal inhibition (%): 35 ± 4%
[3]; 1uM inhibitor, -UV
  Maximal inhibition (%): 49 ± 11%
[3]; 10uM inhibitor, +UV
  Maximal inhibition (%): 83 ± 1%
[3]; 10uM inhibitor, -UV
  Maximal inhibition (%): 87 ± 4%
[3]; F114AzF mutant before and after UV versus wt
  Change in Zn2+ maximal inhibition: no change
[3]; after UV
  IC50: 1.72 ± 0.6 µM
  Zn2+ Hill coefficient nH: 0.77
[3]; before UV
  IC50: 0.78 ± 0.25 µM
  Zn2+ Hill coefficient nH: 0.62
[4]; after UV
  IC50: 0.72 ± 0.12 µM
  Zn2+ Hill coefficient nH: 0.78
[4]; before UV
  IC50: 0.58 ± 0.13 µM
  Zn2+ Hill coefficient nH: 0.59
[5]; 10 μM Zn2+ with co-agonists, +UV (~3 min, 365 nm)
  Relative current (I+uv/I0) after wash-off of modulator: 1.40 ± 0.43
[5]; 10 μM Zn2+ with co-agonists, -UV
  Relative current (I/I0) after wash-off of modulator: 0.92 ± 0.29

## CC(C(O)c1ccc(O)cc1)N1CCC(Cc2ccccc2)CC1 (centres unmarked) [ifenprodil]
[3]
  Ifenprodil maximal inhibition: 77% and 67%
[3]; 0.1 µM
  Maximal inhibition (%): 16 ± 3% and 9 ± 4 %
[3]; 1 µM
  Maximal inhibition (%): 54 ± 4% and 35 ± 4 %
[3]; 10 µM
  Maximal inhibition (%): 77 ± 3% and 55 ± 3 %
[4]
  Ifenprodil Hill coefficient nH: 1.14
[5]; in the presence of ifenprodil
  Effect on UV potentiation: completely abolished

## NCCCNCCCCNCCCN [spermine]
[5]; 200 μM spermine, pH 6.5, +UV (~3 min, 365 nm)
  Relative current (I+uv/I0): 2.80 ± 0.64
[5]; 200 μM spermine, pH 6.5, -UV
  Relative current (I/I0): 0.85 ± 0.10
[5]; in the presence of 200 μM spermine, pH 6.5
  τon of UV induced additional potentiation: 50.8 s
[6]
  Spermine potentiation of receptor activation: 4.6 fold

## GluN2B-F114AzF (from UniProt Q01097 27-1482) (receptor)
wild-type GluN1 (rat)
  relative current Iuv/Io after UV illumination of maximally activated receptors (TEVC in oocytes, UV-induced potentiation): 1.97
